Columns and labels:
Experiment in all cases: Sensitivity test (agar dilution), clinical isolate
B. cepacia 14300 = assay type: cell-based, Burkholderia cepacia
Procedure: (§1) In addition, the antibacterial activities were tested against strains which are comparatively less sensitive to β-lactam compounds, namely clinically isolated 13 strains of Acinetobacter calcoaceticus and Acinetobacter lwoffi, clinically isolated 11 strains of Serratia marcescens, clinically isolated 12 strains of Burkholderia cepacia, and clinically isolated 15 strains of Pseudomonas aeruginosa.
(§2) According to the standard method of Japan Chemotherapeutic Society (Chemotherapy, vol. […], p 76-79 (1981)) the test was carried out using the agar dilution method. After dissolving test samples in distilled water, agar medium containing the test samples was prepared in such a manner that the final concentration became twice serial dilution by pouring serially diluted combination drug solution or a single drug solution into agar medium. As agar medium was used Mueller Hinton Agar medium (MHA). Then, each strain was cultivated over night at 37° C. in an incubator and suspended in buffered saline solution with gelatin (BSG) in the concentration of about 10^6 CFU/ml. The suspension (about 5 μl) containing test strains was inoculated to the medium containing the test samples by Micro Planter.
(§3) Each drug was weighed, and dissolved in distilled water to give a test sample. When the drugs are used in combination, two kinds of solution containing each drug were mixed so as to be various ratio of concentration to give a mixed solution. When the sample is subjected to sensitivity test, this mixed solution was diluted by twice serial dilution method.
(§4) Furthermore, when the drug is solely used, each test sample was used as it is, and diluted by twice serial dilution method from the maximum concentration to the minimum concentration.

B. cepacia 14427 = assay type: cell-based, Burkholderia cepacia
Procedure: as §1, §2, §3, §4

B. cepacia 14428 = assay type: cell-based, Burkholderia cepacia
Procedure: as §1, §2, §3, §4

B. cepacia 14429 = assay type: cell-based, Burkholderia cepacia
Procedure: as §1, §2, §3, §4

B. cepacia 14430 = assay type: cell-based, Burkholderia cepacia
Procedure: as §1, §2, §3, §4

B. cepacia 14607 = assay type: cell-based, Burkholderia cepacia
Procedure: as §1, §2, §3, §4

B. cepacia 1892324 = assay type: cell-based, Burkholderia cepacia
Procedure: as §1, §2, §3, §4

B. cepacia 1993527 = assay type: cell-based, Burkholderia cepacia
Procedure: as §1, §2, §3, §4

B. cepacia 3138 = assay type: cell-based, Burkholderia cepacia
Procedure: as §1, §2, §3, §4

B. cepacia 7247 = assay type: cell-based, Burkholderia cepacia
Procedure: as §1, §2, §3, §4

P. aeruginosa 12789 = assay type: cell-based, Pseudomonas aeruginosa
Procedure: as §1, §2, §3, §4

P. aeruginosa 13245 = assay type: cell-based, Pseudomonas aeruginosa
Procedure: as §1, §2, §3, §4

P. aeruginosa 13250 = assay type: cell-based, Pseudomonas aeruginosa
Procedure: as §1, §2, §3, §4

P. aeruginosa 13285 = assay type: cell-based, Pseudomonas aeruginosa
Procedure: as §1, §2, §3, §4

P. aeruginosa 15032 = assay type: cell-based, Pseudomonas aeruginosa
Procedure: as §1, §2, §3, §4

## C[C@@H](O)[C@H]1C(=O)N2C(C(=O)O)=C(S[C@@H]3CN[C@H](C(=O)N(C)C)C3)[C@H](C)[C@H]12 [MEPM, meropenem]
B. cepacia 14300; Burkholderia cepacia, 14300, Concomitant (ME:SM = 1:1)
  MIC: 0.5 µg/mL
B. cepacia 14300; Burkholderia cepacia, 14300, Concomitant (ME:SM = 1:2)
  MIC: 0.5 µg/mL
B. cepacia 14300; Burkholderia cepacia, 14300, Concomitant (ME:SM = 1:4)
  MIC: 0.25 µg/mL
B. cepacia 14300; Burkholderia cepacia, 14300, Concomitant (ME:SM = 2:1)
  MIC: 0.5 µg/mL
B. cepacia 14300; Burkholderia cepacia, 14300, alone
  MIC: 0.5 µg/mL
B. cepacia 14427; Burkholderia cepacia, 14427, Concomitant (ME:SM = 1:1)
  MIC: 1 µg/mL
B. cepacia 14427; Burkholderia cepacia, 14427, Concomitant (ME:SM = 1:2)
  MIC: 0.5 µg/mL
B. cepacia 14427; Burkholderia cepacia, 14427, Concomitant (ME:SM = 1:4)
  MIC: 0.5 µg/mL
B. cepacia 14427; Burkholderia cepacia, 14427, Concomitant (ME:SM = 2:1)
  MIC: 1 µg/mL
B. cepacia 14427; Burkholderia cepacia, 14427, alone
  MIC: 1 µg/mL
B. cepacia 14428; Burkholderia cepacia, 14428, Concomitant (ME:SM = 1:1)
  MIC: 1 µg/mL
B. cepacia 14428; Burkholderia cepacia, 14428, Concomitant (ME:SM = 1:2)
  MIC: 1 µg/mL
B. cepacia 14428; Burkholderia cepacia, 14428, Concomitant (ME:SM = 1:4)
  MIC: 0.5 µg/mL
B. cepacia 14428; Burkholderia cepacia, 14428, Concomitant (ME:SM = 2:1)
  MIC: 1 µg/mL
B. cepacia 14428; Burkholderia cepacia, 14428, alone
  MIC: 2 µg/mL
B. cepacia 14429; Burkholderia cepacia, 14429, Concomitant (ME:SM = 1:1)
  MIC: 1 µg/mL
B. cepacia 14429; Burkholderia cepacia, 14429, Concomitant (ME:SM = 1:2)
  MIC: 0.5 µg/mL
B. cepacia 14429; Burkholderia cepacia, 14429, Concomitant (ME:SM = 1:4)
  MIC: 0.5 µg/mL
B. cepacia 14429; Burkholderia cepacia, 14429, Concomitant (ME:SM = 2:1)
  MIC: 1 µg/mL
B. cepacia 14429; Burkholderia cepacia, 14429, alone
  MIC: 1 µg/mL
B. cepacia 14430; Burkholderia cepacia, 14430, Concomitant (ME:SM = 1:1)
  MIC: 1 µg/mL
B. cepacia 14430; Burkholderia cepacia, 14430, Concomitant (ME:SM = 1:2)
  MIC: 1 µg/mL
B. cepacia 14430; Burkholderia cepacia, 14430, Concomitant (ME:SM = 1:4)
  MIC: 2 µg/mL
B. cepacia 14430; Burkholderia cepacia, 14430, Concomitant (ME:SM = 2:1)
  MIC: 2 µg/mL
B. cepacia 14430; Burkholderia cepacia, 14430, alone
  MIC: 2 µg/mL
B. cepacia 14607; Burkholderia cepacia, 14607, Concomitant (ME:SM = 1:1)
  MIC: 1 µg/mL
B. cepacia 14607; Burkholderia cepacia, 14607, Concomitant (ME:SM = 1:2)
  MIC: 0.5 µg/mL
B. cepacia 14607; Burkholderia cepacia, 14607, Concomitant (ME:SM = 1:4)
  MIC: 0.5 µg/mL
B. cepacia 14607; Burkholderia cepacia, 14607, Concomitant (ME:SM = 2:1)
  MIC: 1 µg/mL
B. cepacia 14607; Burkholderia cepacia, 14607, alone
  MIC: 1 µg/mL
B. cepacia 1892324; Burkholderia cepacia, 1892324, Concomitant (ME:SM = 1:1)
  MIC: 1 µg/mL
B. cepacia 1892324; Burkholderia cepacia, 1892324, Concomitant (ME:SM = 1:2)
  MIC: 1 µg/mL
B. cepacia 1892324; Burkholderia cepacia, 1892324, Concomitant (ME:SM = 1:4)
  MIC: 0.5 µg/mL
B. cepacia 1892324; Burkholderia cepacia, 1892324, Concomitant (ME:SM = 2:1)
  MIC: 2 µg/mL
B. cepacia 1892324; Burkholderia cepacia, 1892324, alone
  MIC: 2 µg/mL
B. cepacia 1993527; Burkholderia cepacia, 1993527, Concomitant (ME:SM = 1:1)
  MIC: 1 µg/mL
B. cepacia 1993527; Burkholderia cepacia, 1993527, Concomitant (ME:SM = 1:2)
  MIC: 1 µg/mL
B. cepacia 1993527; Burkholderia cepacia, 1993527, Concomitant (ME:SM = 1:4)
  MIC: 2 µg/mL
B. cepacia 1993527; Burkholderia cepacia, 1993527, Concomitant (ME:SM = 2:1)
  MIC: 2 µg/mL
B. cepacia 1993527; Burkholderia cepacia, 1993527, alone
  MIC: 2 µg/mL
B. cepacia 3138; Burkholderia cepacia, 3138, Concomitant (ME:SM = 1:1)
  MIC: 1 µg/mL
B. cepacia 3138; Burkholderia cepacia, 3138, Concomitant (ME:SM = 1:2)
  MIC: 1 µg/mL
B. cepacia 3138; Burkholderia cepacia, 3138, Concomitant (ME:SM = 1:4)
  MIC: 2 µg/mL
B. cepacia 3138; Burkholderia cepacia, 3138, Concomitant (ME:SM = 2:1)
  MIC: 2 µg/mL
B. cepacia 3138; Burkholderia cepacia, 3138, alone
  MIC: 2 µg/mL
B. cepacia 7247; Burkholderia cepacia, 7247, Concomitant (ME:SM = 1:1)
  MIC: 2 µg/mL
B. cepacia 7247; Burkholderia cepacia, 7247, Concomitant (ME:SM = 1:2)
  MIC: 2 µg/mL
B. cepacia 7247; Burkholderia cepacia, 7247, Concomitant (ME:SM = 1:4)
  MIC: 2 µg/mL
B. cepacia 7247; Burkholderia cepacia, 7247, Concomitant (ME:SM = 2:1)
  MIC: 2 µg/mL
B. cepacia 7247; Burkholderia cepacia, 7247, alone
  MIC: 2 µg/mL
P. aeruginosa 12789; Pseudomonas aeruginosa, 12789, Concomitant (ME:SM = 1:1)
  MIC: 0.5 µg/mL
P. aeruginosa 12789; Pseudomonas aeruginosa, 12789, Concomitant (ME:SM = 1:2)
  MIC: 0.5 µg/mL
P. aeruginosa 12789; Pseudomonas aeruginosa, 12789, Concomitant (ME:SM = 1:4)
  MIC: 0.5 µg/mL
P. aeruginosa 12789; Pseudomonas aeruginosa, 12789, Concomitant (ME:SM = 2:1)
  MIC: 0.5 µg/mL
P. aeruginosa 12789; Pseudomonas aeruginosa, 12789, alone
  MIC: 0.5 µg/mL
P. aeruginosa 13245; Pseudomonas aeruginosa, 13245, Concomitant (ME:SM = 1:1)
  MIC: 2 µg/mL
P. aeruginosa 13245; Pseudomonas aeruginosa, 13245, Concomitant (ME:SM = 1:2)
  MIC: 1 µg/mL
P. aeruginosa 13245; Pseudomonas aeruginosa, 13245, Concomitant (ME:SM = 1:4)
  MIC: 2 µg/mL
P. aeruginosa 13245; Pseudomonas aeruginosa, 13245, Concomitant (ME:SM = 2:1)
  MIC: 2 µg/mL
P. aeruginosa 13245; Pseudomonas aeruginosa, 13245, alone
  MIC: 2 µg/mL
P. aeruginosa 13250; Pseudomonas aeruginosa, 13250, Concomitant (ME:SM = 1:1)
  MIC: 0.5 µg/mL
P. aeruginosa 13250; Pseudomonas aeruginosa, 13250, Concomitant (ME:SM = 1:2)
  MIC: 0.25 µg/mL
P. aeruginosa 13250; Pseudomonas aeruginosa, 13250, Concomitant (ME:SM = 1:4)
  MIC: 0.5 µg/mL
P. aeruginosa 13250; Pseudomonas aeruginosa, 13250, Concomitant (ME:SM = 2:1)
  MIC: 0.5 µg/mL
P. aeruginosa 13250; Pseudomonas aeruginosa, 13250, alone
  MIC: 0.5 µg/mL
P. aeruginosa 13285; Pseudomonas aeruginosa, 13285, Concomitant (ME:SM = 1:1)
  MIC: 4 µg/mL
P. aeruginosa 13285; Pseudomonas aeruginosa, 13285, Concomitant (ME:SM = 1:2)
  MIC: 4 µg/mL
P. aeruginosa 13285; Pseudomonas aeruginosa, 13285, Concomitant (ME:SM = 1:4)
  MIC: 4 µg/mL
P. aeruginosa 13285; Pseudomonas aeruginosa, 13285, Concomitant (ME:SM = 2:1)
  MIC: 4 µg/mL
P. aeruginosa 13285; Pseudomonas aeruginosa, 13285, alone
  MIC: 4 µg/mL
P. aeruginosa 15032; Pseudomonas aeruginosa, 15032, Concomitant (ME:SM = 1:1)
  MIC: 2 µg/mL
P. aeruginosa 15032; Pseudomonas aeruginosa, 15032, Concomitant (ME:SM = 1:2)
  MIC: 1 µg/mL
P. aeruginosa 15032; Pseudomonas aeruginosa, 15032, Concomitant (ME:SM = 1:4)
  MIC: 2 µg/mL
P. aeruginosa 15032; Pseudomonas aeruginosa, 15032, Concomitant (ME:SM = 2:1)
  MIC: 2 µg/mL
P. aeruginosa 15032; Pseudomonas aeruginosa, 15032, alone
  MIC: 2 µg/mL
